# Measurements taken from a melting point compilation (Tetko et al.; mined from patent text by program, amines drawn as free bases though some values may be those of a salt).
row,SMILES,melting point
1,CN1C(=O)CCn2nc(-c3ccc(F)cc3)c(-c3ccncc3)c21,185 to 186 °C
2,Cc1cc(Nc2ccnc(Nc3ccc(S(=O)(=O)N4CCC(C(O)Cc5ncccc5C)CC4)cc3)n2)ccc1F (centres undefined),103 to 104 °C
3,Cc1cc(=O)c(O)c(C)o1,161 to 163 °C
4,O=C1C(=O)c2ccc(Cl)cc2C2=C1SCC1(CCN(CC(O)Cc3ccccc3)CC1)O2 (centres undefined),92 to 96 °C
5,CN(C)C=C(C(=O)C(C)(C)C)n1ccnc1,45 to 50 °C
6,COc1ccc(C(=O)Nc2cc(NC(=O)c3cccc(N(C)C)c3)ccc2F)cc1OC,187 to 188 °C
7,CCCP(=O)(O)CCCN,210 to 213 °C
8,CSc1nc(-c2ccccn2)n(-c2ccc(F)cc2)c(=O)c1C#N,221 to 227 °C
9,O=C(O)c1cc2cc(F)c(F)cc2nc1Cl,232 °C
10,COC(Cc1ccc(I)cc1)c1ccc(I)cc1 (centres undefined),62 to 64 °C
11,C1=C(c2nc3ccccc3o2)CCN(Cc2ccccc2)C1,129 to 130 °C
12,O=C(O)c1ccc(NCc2cccc([N+](=O)[O-])c2)cc1O,189 °C
13,CC(C)(C)Oc1ccc(C(=O)N[C@H]2CC[C@H](CCN3CCN(c4nccc5c4OCC5)CC3)CC2)cc1,168 °C
14,COc1ccc(-c2cn([C@H]3CN4CCC3CC4)nn2)cc1,122 °C
15,O=C(N1CC([N+](=O)[O-])([N+](=O)[O-])C1)C(F)(F)F,70 to 71 °C
16,CC[C@@H](Nc1nc(NCc2ccccc2)c2ncn(C(C)C)c2n1)[C@H](C)O,42 to 44 °C
17,COc1cc(C2(C=O)C=CC=CC2)ccc1OCCCN1CCC(c2noc3cc(F)ccc23)CC1 (centres undefined),128 to 130 °C
18,N#Cc1ccc(C(F)(F)C23CCCN2C(=O)N(c2cc(Cl)cc(Cl)c2)C3=O)cc1 (centres undefined),66 °C
19,COC(=O)C1(NS(=O)(=O)c2ccc3c(Cl)cnc(NC(=N)N)c3c2)CCOCC1,245 to 247 °C
20,COc1ccc(S(=O)(=O)n2ccc3ccnc(-c4cccs4)c32)cc1,112 to 114 °C
21,O=C(O)C(Cl)=C(Cl)C(=O)c1ccccc1,228 °C
22,O=C(c1cc([N+](=O)[O-])cc(C(F)(F)F)c1)N1CCC1,91 °C
23,CCCCC(CC)COc1ccc(-c2nc(-c3ccc(OCC(CC)CCCC)cc3)nc(-c3ccc(OCC(CC)CCCC)cc3O)n2)cc1 (centres undefined),93 to 95 °C

row,SMILES,melting point
1,c1cn(-c2ccc3nc(-c4ccc5c(c4)OCCO5)ncc3c2)cn1,132 °C
2,c1cc(N2CCOCC2)c2c(c1)-n1cnc(-c3nc(C4CC4)no3)c1N1CCN=C21,217 to 220 °C
3,CCCNC(=O)C(C#N)=NNc1ccccc1-c1ccccc1,180 to 184 °C
4,c1ccc(C(CC2=NCCN2)c2ccncc2)cc1 (centres undefined),105 to 107 °C
5,O=C(O)c1ccc(Cn2cc(C3c4ccc(C(F)(F)F)cc4C=Cc4cc(C(F)(F)F)ccc43)c(=S)[nH]c2=O)o1,159 to 162 °C
6,Cc1ccc(NC(=O)c2cccc(N(C)C)c2)cc1NC(=O)c1cccc(N(C)S(C)(=O)=O)c1,168 to 169 °C
7,COC(=O)[C@]1(F)[C@H]2[C@H](O)CC(=O)[C@H]21,61 to 62 °C
8,O=C(c1cccnc1)c1cccc(NC(=O)c2ccn3c2CSC3c2cccnc2)c1 (centres undefined),160 °C
9,Cc1nc(-c2cc(Cl)ccc2Cl)n2c1nnc1ccc(N3CCCCC3)cc12,158 to 160 °C
10,CN(C)n1c(NN)nc2ccccc2c1=O,125 to 127 °C
11,CNC(=O)Nc1cc(C#N)ccn1,203 to 204 °C
12,CC(=O)Oc1ccc(C(C)(C)C)cc1C1(OC(C)=O)C(=O)c2ccccc2C1=O,195 to 196 °C
13,COc1cccc(C(=O)Nc2cc(C(=O)NCc3ccccc3)ccn2)c1,95 to 96 °C
14,N#Cc1cnc2n(c1=O)CCC2,119 to 121 °C
15,O=C(Nc1ccc(C2=CCN(C(=O)Nc3ccc(OCC(O)CO)cc3Cl)CC2)cc1)Nc1ccccc1F (centres undefined),161 to 165 °C
16,O=C(O)c1cccnc1N1CCc2ccccc2C1,150 to 152 °C
17,COc1cc(OCCCCN2CCCN(CCCCOc3cc(OC)c(OC)c(OC)c3)CC2)cc(OC)c1OC,124 to 126 °C
18,COc1ccc(-c2cn(O)c(=S)[nH]2)cc1,160 °C
19,O=C(NCc1ccccn1)Nc1cc(N2CC(c3ccccc3)OC2=O)ccn1 (centres undefined),190 to 191 °C
20,CN1C(c2ccccc2)CC(=O)CC1c1ccccc1 (centres undefined),147 to 149 °C
21,COc1cc(C(C)=O)cc(OC)c1O[Si](C)(C)C(C)(C)C,90 to 92 °C
22,Oc1ccccc1C=NC1=NN(c2cnc3ccccc3c2)CC1,288 to 289 °C
23,CC(=O)NC[C@H]1CN(c2ccc(N3CCC4(CC3)COCO4)c(F)c2)C(=O)O1,142 to 144 °C

row,SMILES,melting point
1,CC(C)OC(=O)c1cc(-c2nn(C)c(C(F)(F)F)c2C=O)c(F)cc1Cl,90 °C
2,N[C@@H]1CCN(Cc2ccccc2)C[C@H]1O (relative stereo),74.1 °C
3,O=[N+]([O-])c1ccc2[nH]cc(Cc3ccc(F)cc3)c2c1,142 to 144 °C
4,O=C(c1ccccc1)N1Cc2c(-c3noc(C4CC4)n3)ncn2-c2ccccc21,198 to 199 °C
5,O=C1C(=O)c2ccc(-c3ccccc3)cc2C2=C1SCC1(CCN(CC(O)COc3ccc(F)cc3)CC1)O2 (centres undefined),173 to 175 °C
6,C=Cc1ccc(CN2C(=O)c3ccccc3C2=O)c2ccccc12,146 to 147 °C
7,CC(=O)Oc1cc([N+](=O)[O-])cc([N+](=O)[O-])c1OC(C)=O,115 to 117 °C
8,NC(CNCCO)(CC(=O)O)c1ccccc1 (centres undefined),140 to 143 °C
9,c1cnc2ncn(CCCCc3nnnn3C3CCCCC3)c2c1,143 to 146 °C
10,CON=C(C(=O)O)c1nc(NC=O)sc1Br,165 to 167 °C
11,CN(C)CCCn1c(-c2ccccc2)cc2c1CCS(=O)(=O)C2,123 to 125 °C
12,O=C(Nc1ccc(C(F)(F)F)cc1)Nc1ccc2c(c1)OC(F)(F)O2,195 to 200 °C
13,O=Cc1cc2sccc2c2ccccc12,101 to 102 °C
14,COC(=O)c1ccc(C(=O)Nc2ccccc2)cc1,189 to 190 °C
15,CC1CCc2c(Cl)c(F)cc3c(=O)c(C(=O)O)cn1c23 (centres undefined),297 to 298 °C
16,Cc1ccc(S(=O)(=O)N2CCCC(S(=O)(=O)c3cccc(Cl)c3)C2)cc1 (centres undefined),282 to 284 °C
17,CN1Cc2c(C(=O)OC3CCCCC3)ncn2-c2cccc(Cl)c2C1=O,208 to 209 °C
18,CC(=O)c1ccc(N2CCCCC2)c(S(N)(=O)=O)c1,130 to 132 °C
19,CC(O)(C1=CCNCC1)c1ccc(F)cc1 (centres undefined),168 °C
20,CCNc1ccc2nnc(-c3ncc([N+](=O)[O-])n3C)n2n1,258 to 263 °C
21,CCSc1ccc2c(c1)CCN2C(=O)Nc1cccnc1,150 to 151 °C
22,COc1cc(C(=O)C#CCOC(C)=O)cc(OC)c1OC,104 to 105 °C
23,COc1cc(OC)c(C23CC4CC(CC(C4)C2)C3)cc1C(=O)O,213 to 214 °C

# Other lines, results leading:
row,melting point,SMILES
1,121 to 122 °C,CCSC(C)(C)C(=O)CC(=O)Nc1cc(NC(=O)CCCOc2ccc(C(C)(C)CC)cc2C(C)(C)CC)ccc1Cl
2,134 to 136 °C,Cc1cc(-n2ccc(OCCC3CC3)cc2=O)sc1C(=O)NCc1ccccc1
3,138 to 140 °C,CCCCS(=O)(=O)NC1Cc2ccc(C(=O)CCC(=O)O)cc2C1 (centres undefined)
4,147 to 150 °C,CCCCCCCCCCOc1ccc(C(=O)c2cccc(C(=O)O)c2)cc1Cc1nnn[nH]1
5,232 to 235 °C,CC1(C)CC(=O)c2c(NC3CC3)sc(-c3cc[nH]n3)c2C1
6,232 to 234 °C,Cc1oc2ccc(O)cc2c(=O)c1Cc1cccc(NS(=O)(=O)C(F)(F)F)c1
7,228 to 230 °C,CN1C(=O)N(c2ccc(Cl)cc2)S(=O)(=O)c2ccc(OCC(=O)O)cc21
8,134 to 135 °C,O=C(CCCCCl)c1ccc2c(c1)Cc1cc(C(=O)CCCCCl)ccc1O2
9,74 to 76 °C,CC(C)c1cc(C(C)C)c2sc3ccccc3c(=O)c2c1
10,105 to 108 °C,CCCCC12CCC3=C(CCc4cc(OC)ccc43)C1CCC2=O (centres undefined)
11,174 °C,CC1=C(C(=O)OC2CCCC2)C(c2cccc([N+](=O)[O-])c2)C([N+](=O)[O-])=C(C)N1 (centres undefined)
12,170 °C,Cc1nc2n(c(=O)c1CCN1CCN(c3noc4c(C)cccc34)CC1)CCCS2
13,87 to 88 °C,CCOC(=O)CC(NCc1ccccc1)=C(C(C)=O)C(=O)OCC
14,111 to 113 °C,CCOC(=O)c1ccc(NS(C)(=O)=O)c(Oc2ccc(F)cc2F)c1
15,201 to 206 °C,O=C1c2ccccc2C(=O)N1OCc1c(Cl)cccc1Cl
16,135 to 136 °C,Cc1ccc(O[C@@H](Cc2ccc(O)cc2)C(=O)N2C(=O)OC[C@@H]2Cc2ccccc2)cc1
17,180 °C,O=C(O)CCc1cccc(-c2nc(=O)c3ccccc3s2)c1
18,124 °C,CCCCN(CCCC)C(=O)CC1C(=O)N(c2ccc(Cl)cc2)C(=O)N1c1ccc(Cl)cc1 (centres undefined)
19,71 to 74 °C,CCCCOP(=O)(CCCCC1(C(=O)NCC(F)(F)F)c2ccccc2-c2ccccc21)OCCCC
20,141 to 142 °C,Cc1cccc(C)c1N(CCCC(=O)NCC(=O)O)C(=O)c1ccc(Cl)cc1
21,165 to 166 °C,COC(=O)C1=C(C)Nc2ccccc2SC1c1ccccc1C(F)(F)F (centres undefined)
22,65 to 66 °C,CCOC1=C(CCCCCCC(=O)O)C(=O)CC1
23,202 to 206 °C,CC(=O)SCC(Cc1ccccc1)C(=O)Nc1cc(C(=O)O)ccc1O (centres undefined)
24,129 to 131 °C,COC(=O)C1=C(C)NC(C)=C(C(=O)OCCCl)C1c1cccc([N+](=O)[O-])c1 (centres undefined)
25,174 °C,Cc1cc(CC=CCO)c(O)c2c1NC(=O)C2(C)C
26,80 °C,CCCCc1c(C(=O)OCC)[nH]c2cccc(SC)c2c1=O
27,90 to 104 °C,CCC(N)=C(C(C)=O)c1[nH]c2ccccc2c1C(O)CN(C)C (centres undefined)
28,140 to 150 °C,CCCCc1nc(SC)c(C(C)(O)C(=O)O)n1Cc1ccc(-c2ccccc2S(=O)(=O)NC(=O)OCc2ccccc2)cc1 (centres undefined)
29,209 to 211 °C,CCOCc1nc2c(N)nc3cc(OCC(=O)N4CCOCC4)ccc3c2n1CC(C)(C)O
30,94 to 95 °C,C[C@H](Cc1c[nH]c2c(OCc3ccccc3)cccc12)NC(=O)OC(C)(C)C
